System: 885512-296-R-J2-PDC complex spheroid viability
Experiment: Anticancer human tumor 885512-296-R-J2-PDC patient-derived breast carcinoma cell line growth inhibition [GQUAD]
Conditions: for IC50: curve of first compound; for viability, T/C: stronger effect = lower value
Text: DNA G-quadruplex Stabilizer Agents in Combinations in Complex Spheroids
A high-throughput screen of multi-cell type tumor spheroids was designed to identify active combinations of DNA G-quadruplex stabilizer agents and targeted small molecules. Complex spheroids include a stromal component modeled by human endothelial cells (HUVEC) and fibroblasts modeled by human mesenchymal stem cells (MSCs). The concentration ranges selected for each drug and investigational agent were based upon clinically achievable concentrations if the clinical Cmax of the agent was known.
Compounds. The drugs and investigational agents: pidnarulex (CX-5461; NSC782164), APTO-253 (NSC789042), BRACO-19 (NSC847499), peposertib (NSC802822), ceralasertib (NSC780249), elimusertib (NSC800525), camonsertib (NSC841442), AZD-1390 (NSC803789), olaparib (NSC753686), talazoparib (NSC767125), ART-558 (NSC835418), sotorasib (NSC818433), MRTX-1133 (NSC836407), SN-38 (NSC673596), topotecan (NSC609699), etoposide (NSC141540), doxorubicin (NSC123127), gemcitabine (NSC613327), 5-fluorouracil (NSC19893), paclitaxel (NSC125973), vemurafenib (NSC761431), panobinostat (NSC761190), R-306465 (JNJ-16241199; NSC773264), adavosertib (NSC754352), TP-3654 (NSC805149), carboplatin (NSC241240), KSQ-4279 (NSC840948), and staurosporine (NSC755774) were obtained from the National Cancer Institute (NCI) Developmental Therapeutics Program Chemical Repository (34). The FDA-approved anticancer drug set is available from the NCI Developmental Therapeutics Program. […] The stock solutions were prepared in dimethyl sulfoxide (DMSO, Sigma-Aldrich, St. Louis, MO, cat. D2650) at 800-fold the tested concentration and stored at -70 degrees C prior to their use. All drugs and investigational agents were tested over a range starting from a high concentration at or near the clinical Cmax and decreasing in half-log increments. If the clinical Cmax for an agent had not been determined, the highest concentration tested was 10 microM.
2.3 Cell Culture. All cells were maintained in an incubator at 37 degrees C and 5% CO2 with 95% humidity. The PDC lines were cultured according to standard operating procedures established by the NCI PDMR. All PDCs were thawed and cultured in Matrigel-coated flasks prepared with a working solution of 1X Ham's F-12 nutrient mix, without supplementation (Invitrogen, cat. 11765054), 100 U/mL penicillin-streptomycin (Invitrogen, cat. 15140122), and 2.5% Matrigel (Corning Inc., cat. 354248) for the first three passages. The 857933-349-R-J2-PDC line was cultured in 6C/Colon 1B media, which includes advanced DMEM/F-12 (Thermo Fisher Scientific, cat. 12634028), 10 mM HEPES (Thermo Fisher Scientific, cat. 15630080), 1X GlutaMAX supplement (Thermo Fisher Scientific, cat. 35050061), 0.1 mg/mL primocin (InvivoGen, cat. ant-pm-2), 10% defined fetal bovine serum, heat inactivated (HyClone Laboratories Inc., cat. SH30070.03HI), 50% L-WRN conditioned media (ATCC, cat. CRL-3276), 1.25 mM N-Acetyl-L-cysteine (Sigma-Aldrich, cat. A9165), 10 mM nicotinamide (Sigma-Aldrich, cat. N0636), 1X B-27 supplement (Thermo Fisher Scientific, cat. 17504044), 1X N-2 supplement (Thermo Fisher Scientific, cat. 17502048), 10 microM Y-27632 dihydrochloride (Tocris Bioscience, cat. 1254), and 50 ng/mL human EGF recombinant protein (Thermo Fisher Scientific, cat. PHG0311). The 485176-168-R4-J1-PDC line was cultured in Panc media, which includes all 6C/Colon 1B media components plus 100 ng/mL human FGF-10 (Thermo Fisher Scientific, cat. 100-26), 500 nM SB-431542 (Selleckchem, cat. S1067), and gastrin (Tocris, cat. 3006).
[…]

[1] = second compound 0.0316 µM, first compound 0.0316 µM
[2] = second compound 0.0316 µM, first compound 0.316 µM
[3] = second compound 0.1 µM, first compound 0.0316 µM
[4] = second compound 0.1 µM, first compound 0.316 µM
[5] = second compound 0.316 µM, first compound 0.0316 µM
[6] = second compound 0.316 µM, first compound 0.316 µM
[7] = second compound 1 µM, first compound 0.0316 µM
[8] = second compound 1 µM, first compound 0.316 µM
[9] = second compound 3.16 µM, first compound 0.0316 µM
[10] = second compound 3.16 µM, first compound 0.316 µM
[11] = second compound 10 µM, first compound 0.0316 µM
[12] = second compound 10 µM, first compound 0.316 µM
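Note: spheroids exposed to the compounds for one week.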
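Throughout, for viability, T/C: percent of tumor spheroid viability relative to DMSO vehicle control wells.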

For `Cc1[nH]c2ccccc2c1CCNCc1ccc(/C=C/C(=O)NO)cc1` + Cc1cnc(CNC(=O)c2c(=O)c3ccc(N4CCCN(C)CC4)nc3n3c2sc2ccccc23)cn1, the IC50 (second compound 0.0316 µM) was 15 nM, the IC50 (second compound 0.1 µM) was under 0.999 nM and the IC50 (second compound 0.316 µM) was under 0.999 nM. It also gave an IC50 (second compound 1 µM) of under 0.999 nM, an IC50 (second compound 3.16 µM) of under 0.999 nM and an IC50 (second compound 10 µM) of under 0.999 nM. For the same molecule, the viability, T/C (second compound 0.0316 µM, first compound 0.000999 µM) was 83.8%, the viability, T/C (second compound 0.0316 µM, first compound 0.00316 µM) was 80.2% and the viability, T/C (second compound 0.0316 µM, first compound 0.00999 µM) was 52%. It also gave a viability, T/C [1] of 34.5%, a viability, T/C (second compound 0.0316 µM, first compound 0.0999 µM) of 27.9% and a viability, T/C [2] of 5.52%. For the same molecule, the viability, T/C (second compound 0.1 µM, first compound 0.000999 µM) was 52.9%, the viability, T/C (second compound 0.1 µM, first compound 0.00316 µM) was 43.2% and the viability, T/C (second compound 0.1 µM, first compound 0.00999 µM) was 38.6%. The viability, T/C [3] was 36.9%, the viability, T/C (second compound 0.1 µM, first compound 0.0999 µM) was 29.8% and the viability, T/C [4] was 6.34%. For the same molecule, the viability, T/C (second compound 0.316 µM, first compound 0.000999 µM) was 27.3%, the viability, T/C (second compound 0.316 µM, first compound 0.00316 µM) was 16% and the viability, T/C (second compound 0.316 µM, first compound 0.00999 µM) was 15.3%. For the same molecule, the viability, T/C [5] was 22.8%, the viability, T/C (second compound 0.316 µM, first compound 0.0999 µM) was 25.1% and the viability, T/C [6] was 5.41%. It also gave a viability, T/C (second compound 1 µM, first compound 0.000999 µM) of 17.4%, a viability, T/C (second compound 1 µM, first compound 0.00316 µM) of 14.9% and a viability, T/C (second compound 1 µM, first compound 0.00999 µM) of 19.2%. It also gave a viability, T/C [7] of 15.4%, a viability, T/C (second compound 1 µM, first compound 0.0999 µM) of 13.9% and a viability, T/C [8] of 0.1%. For the same molecule, the viability, T/C (second compound 3.16 µM, first compound 0.000999 µM) was 19.2%, the viability, T/C (second compound 3.16 µM, first compound 0.00316 µM) was 17.6% and the viability, T/C (second compound 3.16 µM, first compound 0.00999 µM) was 0.21%. It also gave a viability, T/C [9] of 0.22%, a viability, T/C (second compound 3.16 µM, first compound 0.0999 µM) of 0.15% and a viability, T/C [10] of 0.13%. It also gave a viability, T/C (second compound 10 µM, first compound 0.000999 µM) of 0.17%, a viability, T/C (second compound 10 µM, first compound 0.00316 µM) of 0.17% and a viability, T/C (second compound 10 µM, first compound 0.00999 µM) of 0.24%. It also gave a viability, T/C [11] of 0.22%, a viability, T/C (second compound 10 µM, first compound 0.0999 µM) of 0.22% and a viability, T/C [12] of 0.23%.
`O=C(NO)c1cnc(N2CCN(S(=O)(=O)c3ccc4ccccc4c3)CC2)nc1` + Cc1cnc(CNC(=O)c2c(=O)c3ccc(N4CCCN(C)CC4)nc3n3c2sc2ccccc23)cn1 showed an IC50 (second compound 0.0316 µM) of 64.4 nM, an IC50 (second compound 0.1 µM) of under 31.6 nM and an IC50 (second compound 0.316 µM) of under 31.6 nM. For the same molecule, the IC50 (second compound 1 µM) was under 31.6 nM, the IC50 (second compound 3.16 µM) was under 31.6 nM and the IC50 (second compound 10 µM) was under 31.6 nM. For the same molecule, the viability, T/C [1] was 65.9%, the viability, T/C (second compound 0.0316 µM, first compound 0.1 µM) was 38.7% and the viability, T/C [2] was 23.6%. It also gave a viability, T/C (second compound 0.0316 µM, first compound 1 µM) of 5.79%, a viability, T/C (second compound 0.0316 µM, first compound 3.16 µM) of 0.51% and a viability, T/C (second compound 0.0316 µM, first compound 10 µM) of 0.13%. It also gave a viability, T/C [3] of 42.8%, a viability, T/C (second compound 0.1 µM, first compound 0.1 µM) of 37.7% and a viability, T/C [4] of 27.8%. The viability, T/C (second compound 0.1 µM, first compound 1 µM) was 6.31%, the viability, T/C (second compound 0.1 µM, first compound 3.16 µM) was 0.49% and the viability, T/C (second compound 0.1 µM, first compound 10 µM) was 0.43%. For the same molecule, the viability, T/C [5] was 22.8%, the viability, T/C (second compound 0.316 µM, first compound 0.1 µM) was 19.5% and the viability, T/C [6] was 21.7%. For the same molecule, the viability, T/C (second compound 0.316 µM, first compound 1 µM) was 7.7%, the viability, T/C (second compound 0.316 µM, first compound 3.16 µM) was 0.43% and the viability, T/C (second compound 0.316 µM, first compound 10 µM) was 0.1%. It also gave a viability, T/C [7] of 19.3%, a viability, T/C (second compound 1 µM, first compound 0.1 µM) of 14.9% and a viability, T/C [8] of 13.7%. For the same molecule, the viability, T/C (second compound 1 µM, first compound 1 µM) was 0.1%, the viability, T/C (second compound 1 µM, first compound 3.16 µM) was 0.07% and the viability, T/C (second compound 1 µM, first compound 10 µM) was 0.11%. It also gave a viability, T/C [9] of 10%, a viability, T/C (second compound 3.16 µM, first compound 0.1 µM) of 6.5% and a viability, T/C [10] of 0.13%. It also gave a viability, T/C (second compound 3.16 µM, first compound 1 µM) of 0.1%, a viability, T/C (second compound 3.16 µM, first compound 3.16 µM) of 0.09% and a viability, T/C (second compound 3.16 µM, first compound 10 µM) of 0.12%. For the same molecule, the viability, T/C [11] was 0.07%, the viability, T/C (second compound 10 µM, first compound 0.1 µM) was 0.15% and the viability, T/C [12] was 0.15%. For the same molecule, the viability, T/C (second compound 10 µM, first compound 1 µM) was 0.12%, the viability, T/C (second compound 10 µM, first compound 3.16 µM) was 0.15% and the viability, T/C (second compound 10 µM, first compound 10 µM) was 0.17%.

Source: PubChem BioAssay AID2060490 (Molecular Pharmacology Branch, DTP, NCI, 2025)
